Reference: ChEMBL document CHEMBL4825673, “Total and Semisyntheses of Polymyxin Analogues with 2-Thr or 10-Thr Modifications to Decipher the Structure-Activity Relationship and Improve the Antibacterial Activity” (J Med Chem, 2021)
In brackets after ≈: the same amount, converted by molar mass. Positions of bridges follow the written chain, without caps; N, C: chain ends. Non-standard residues stand in square brackets, D forms with d. Residues, ends and D or L forms follow the SMILES beside them. *: point of attachment. Octanoyl = CCCCCCCC(=O)*; Dab = NCC[C@H](N)C(=O)O

Assays:
Type in all cases: functional
Details in all cases: read-out: MIC100
Escherichia coli = experiment: Antibacterial activity against Escherichia coli assessed as inhibition of bacterial growth incubated for 24 hrs by broth microdilution method
Moraxella catarrhalis = experiment: Antibacterial activity against Moraxella catarrhalis assessed as inhibition of bacterial growth incubated for 24 hrs by broth microdilution method
Acinetobacter baumannii = experiment: Antibacterial activity against Acinetobacter baumannii assessed as inhibition of bacterial growth incubated for 24 hrs by broth microdilution method
Klebsiella pneumoniae = experiment: Antibacterial activity against Klebsiella pneumoniae assessed as inhibition of bacterial growth incubated for 24 hrs by broth microdilution method
Pseudomonas aeruginosa [1] = experiment: Antibacterial activity against Pseudomonas aeruginosa PAO1 assessed as inhibition of bacterial growth incubated for 24 hrs by broth microdilution method
Pseudomonas aeruginosa [2] = experiment: Antibacterial activity against Pseudomonas aeruginosa assessed as inhibition of bacterial growth incubated for 24 hrs by broth microdilution method

SMILES | MIC (Escherichia coli) [µg/mL] | MIC (Moraxella catarrhalis) [µg/mL] | MIC (Acinetobacter baumannii) [µg/mL] | MIC (Klebsiella pneumoniae) [µg/mL] | MIC (Pseudomonas aeruginosa [1]) [µg/mL] | MIC (Pseudomonas aeruginosa [2]) [µg/mL]
CSCC[C@H](N)C(=O)O[C@H](C)[C@H](NC(=O)[C@H](CCN)NC(=O)CCCCC(C)C)C(=O)N[C@@H](CCN)C(=O)N[C@H]1CCNC(=O)[C@H]([C@@H](C)O)NC(=O)[C@H](CCN)NC(=O)[C@H](CCN)NC(=O)[C@H](CC(C)C)NC(=O)[C@@H](Cc2ccccc2)NC(=O)[C@H](CCN)NC1=O | 0.25 (≈ 0.189 µM) | > 16 | 0.125 (≈ 0.0946 µM) | 2 (≈ 1.51 µM) | 2 (≈ 1.51 µM) | 0.125 (≈ 0.0946 µM)
CC(C)CCCCC(=O)N[C@@H](CCN)C(=O)N[C@H](C(=O)N[C@@H](CCN)C(=O)N[C@H]1CCNC(=O)[C@H]([C@@H](C)O)NC(=O)[C@H](CCN)NC(=O)[C@H](CCN)NC(=O)[C@H](CC(C)C)NC(=O)[C@@H](Cc2ccccc2)NC(=O)[C@H](CCN)NC1=O)[C@H](C)OC(=O)[C@@H](N)CCC(N)=O | 0.5 (≈ 0.379 µM) | > 32 | 0.06 (≈ 0.0455 µM) | 2 (≈ 1.52 µM) | 2 (≈ 1.52 µM) | 0.25 (≈ 0.19 µM)
CC(C)CCCCC(=O)N[C@@H](CCN)C(=O)N[C@H](C(=O)N[C@@H](CCN)C(=O)N[C@H]1CCNC(=O)[C@H]([C@@H](C)O)NC(=O)[C@H](CCN)NC(=O)[C@H](CCN)NC(=O)[C@H](CC(C)C)NC(=O)[C@@H](Cc2ccccc2)NC(=O)[C@H](CCN)NC1=O)[C@@H](C)OC(=O)[C@@H](N)Cc1ccccc1 | 0.5 (≈ 0.374 µM) | > 32 | 0.25 (≈ 0.187 µM) | 0.5 (≈ 0.374 µM) | 4 (≈ 2.99 µM) | 0.25 (≈ 0.187 µM)
CCCCCCCC(=O)N[C@@H](CCN)C(=O)N[C@H](C(=O)N[C@@H](CCN)C(=O)N[C@H]1CCNC(=O)[C@H](C(C)C)NC(=O)[C@H](CCN)NC(=O)[C@H](CCN)NC(=O)[C@H](CC(C)C)NC(=O)[C@@H](Cc2ccccc2)NC(=O)[C@H](CCN)NC1=O)[C@@H](C)O | 8 (≈ 6.74 µM) | 4 (≈ 3.37 µM) | 1 (≈ 0.842 µM) | 4 (≈ 3.37 µM) | 4 (≈ 3.37 µM) | 0.5 (≈ 0.421 µM)
CC(C)CCCCC(=O)N[C@@H](CCN)C(=O)N[C@H](C(=O)N[C@@H](CCN)C(=O)N[C@H]1CCNC(=O)[C@H]([C@@H](C)O)NC(=O)[C@H](CCN)NC(=O)[C@H](CCN)NC(=O)[C@H](CC(C)C)NC(=O)[C@@H](Cc2ccccc2)NC(=O)[C@H](CCN)NC1=O)[C@@H](C)OC(=O)[C@@H](N)CS | 0.25 (≈ 0.193 µM) | 32 (≈ 24.8 µM) | 0.125 (≈ 0.0967 µM) | 1 (≈ 0.774 µM) | 2 (≈ 1.55 µM) | 0.25 (≈ 0.193 µM)
CC(C)CCCCC(=O)N[C@@H](CCN)C(=O)N[C@H](C(=O)N[C@@H](CCN)C(=O)N[C@H]1CCNC(=O)[C@H]([C@@H](C)O)NC(=O)[C@H](CCN)NC(=O)[C@H](CCN)NC(=O)[C@H](CC(C)C)NC(=O)[C@@H](Cc2ccccc2)NC(=O)[C@H](CCN)NC1=O)[C@@H](C)OC(=O)[C@@H](N)Cc1c[nH]c2ccccc12 | 0.25 (≈ 0.182 µM) | > 32 | 0.06 (≈ 0.0436 µM) | 2 (≈ 1.45 µM) | 2 (≈ 1.45 µM) | 0.125 (≈ 0.0909 µM)
CC(C)CCCCC(=O)N[C@@H](CCN)C(=O)N[C@H](C(=O)N[C@@H](CCN)C(=O)N[C@H]1CCNC(=O)[C@H]([C@@H](C)O)NC(=O)[C@H](CCN)NC(=O)[C@H](CCN)NC(=O)[C@H](CC(C)C)NC(=O)[C@@H](Cc2ccccc2)NC(=O)[C@H](CCN)NC1=O)[C@@H](C)OC(=O)[C@H](C)N | 0.25 (≈ 0.198 µM) | > 32 | 0.125 (≈ 0.0992 µM) | 2 (≈ 1.59 µM) | 1 (≈ 0.793 µM) | 0.25 (≈ 0.198 µM)
CCCCCCCC(=O)N[C@@H](CCN)C(=O)N[C@H](C(=O)N[C@@H](CCN)C(=O)N[C@H]1CCNC(=O)[C@H](CCN)NC(=O)[C@H](CCN)NC(=O)[C@H](CCN)NC(=O)[C@H](CC(C)C)NC(=O)[C@@H](Cc2ccccc2)NC(=O)[C@H](CCN)NC1=O)[C@@H](C)O | 8 (≈ 6.73 µM) | 8 (≈ 6.73 µM) | 0.25 (≈ 0.21 µM) | > 32 | 64 (≈ 53.8 µM) | 8 (≈ 6.73 µM)
CC[C@H](C)CCCCC(=O)N[C@@H](CCN)C(=O)N[C@H](C(=O)N[C@@H](CCN)C(=O)N[C@H]1CCNC(=O)[C@H]([C@@H](C)O)NC(=O)[C@H](CCN)NC(=O)[C@H](CCN)NC(=O)[C@H](CC(C)C)NC(=O)[C@@H](Cc2ccccc2)NC(=O)[C@H](CCN)NC1=O)[C@@H](C)OC(=O)[C@@H](N)CCC(N)=O | 0.25 (≈ 0.188 µM) | > 32 | 0.06 (≈ 0.0451 µM) | 2 (≈ 1.5 µM) | 2 (≈ 1.5 µM) | 0.125 (≈ 0.0939 µM)
CCCCCCCC(=O)N[C@@H](CCN)C(=O)N[C@H](C(=O)N[C@@H](CCN)C(=O)N[C@H]1CCNC(=O)[C@H](CC(C)C)NC(=O)[C@H](CCN)NC(=O)[C@H](CCN)NC(=O)[C@H](CC(C)C)NC(=O)[C@@H](Cc2ccccc2)NC(=O)[C@H](CCN)NC1=O)[C@@H](C)O (Octanoyl-[Dab]T[Dab][Dab][Dab][dF]L[Dab][Dab]L; lactam 4-C) | 4 (≈ 3.33 µM) | 2 (≈ 1.66 µM) | 2 (≈ 1.66 µM) | 2 (≈ 1.66 µM) | 4 (≈ 3.33 µM) | 0.25 (≈ 0.208 µM)
CCCCCCCC(=O)N[C@@H](CCN)C(=O)NC(Cc1ccc(O)cc1)C(=O)N[C@@H](CCN)C(=O)N[C@H]1CCNC(=O)[C@H]([C@@H](C)O)NC(=O)[C@H](CCN)NC(=O)[C@H](CCN)NC(=O)[C@H](CC(C)C)NC(=O)[C@@H](Cc2ccccc2)NC(=O)[C@H](CCN)NC1=O (single isomer, unassigned) | 16 (≈ 12.8 µM) | 8 (≈ 6.39 µM) | > 64 | > 64 | 32 (≈ 25.6 µM) | 2 (≈ 1.6 µM)
